One assay relates to Botrytis cinerea. Nature of the assay: Activity against the gray mold pathogen Botrytis cinerea in the microtiter test. In kind it is cell-based. The following applies: single active, day 7 after inoculation, absorption 405 nm.
For another assay, the system named is Phytophthora infestans. In kind it is in vivo, Phytophthora infestans on tomato plants. The following applies: 16 ppm; single active; sprayed 5 days before infection, assessed after 6 days; control 90% infection.

Regarding `CO/C=C(/C(=O)OC)c1ccccc1CO/N=C(C)/C=C/c1ccc(Cl)cc1` [enestroburin (I), methyl 2-{2-[3-(4-chlorophenyl)-1-methylallylideneaminooxymethyl]phenyl}-3-methoxyacrylate], the “Observed efficacy (%)” value with Botrytis cinerea (0.063 ppm), in the assay on Botrytis cinerea (0.125 ppm) and in the assay on Botrytis cinerea (0.25 ppm) was 0% each time.

Consider `O=[N+]([O-])c1cc(C(F)(F)F)c(Cl)c([N+](=O)[O-])c1Nc1ncc(C(F)(F)F)cc1Cl` [fluazinam (II-1), 3-chloro-N-[3-chloro-2,6-dinitro-4-(trifluoromethyl)phenyl]-5-(trifluoromethyl)-2-pyridineamine], for which the “Observed efficacy (%)” value with Botrytis cinerea (0.063 ppm) came to 35%; in the assay with Phytophthora infestans it was 22%.

As to `Cc1cc(C)nc(Nc2ccccc2)n1` [pyrimethanil (II-9)], in the assay on Botrytis cinerea (0.125 ppm), the “Observed efficacy (%)” value was found to be 70%.

The record behind these values is patent US20090124599A1, “Fungicidal Mixtures” (Basf Aktiengesellschaft, priority 2004, published 2009).
